Broadly, the Kd is the equilibrium constant for the complex coming apart.

Where a SMILES comes first, the peptide text is derived from it.

The values that follow come from patent publication US20080009025A1, “PROTEIN KINASE REGULATION” (priority 1999, published 2008).

For assay [1], the target named is T1, PDK1 (Homo sapiens, UniProt O15530).
T1 sequence (O15530 1-556): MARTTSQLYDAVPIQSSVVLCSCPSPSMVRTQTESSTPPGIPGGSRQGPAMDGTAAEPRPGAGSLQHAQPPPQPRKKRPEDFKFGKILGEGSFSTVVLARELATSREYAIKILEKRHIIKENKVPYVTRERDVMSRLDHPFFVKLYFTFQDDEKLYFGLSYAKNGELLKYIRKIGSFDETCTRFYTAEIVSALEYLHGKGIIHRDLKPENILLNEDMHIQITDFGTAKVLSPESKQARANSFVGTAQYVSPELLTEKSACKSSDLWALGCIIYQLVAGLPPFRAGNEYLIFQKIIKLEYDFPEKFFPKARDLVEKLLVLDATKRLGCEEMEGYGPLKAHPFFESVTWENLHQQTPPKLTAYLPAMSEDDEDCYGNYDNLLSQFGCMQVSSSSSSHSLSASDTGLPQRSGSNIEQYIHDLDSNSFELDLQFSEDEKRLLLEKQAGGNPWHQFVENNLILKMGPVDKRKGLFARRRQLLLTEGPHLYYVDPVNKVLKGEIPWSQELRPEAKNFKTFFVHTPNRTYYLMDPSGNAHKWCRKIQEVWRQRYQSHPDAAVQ
Briefly: Phosphorylation of GST-p70 S6K-T2 by PDK1 in vitro (32P autoradiography). It counts as biochemical. Also on record: made in house; host or cells: 293 cells or E. coli. The note with it: GST-PDK1 50 nM. The procedure: FIG. 1. PIF prevents PDK1 from phosphorylating p70 S6K in vitro. GST-p70 S6K lacking the C-terminal 104 amino acids (GST-p70 S6KT2) (1 μg) was incubated for 30 min at 30° C. with Mg [γ^32P] ATP and GST-PDK1 (50 nM) in the presence or absence of either wild type (wt) GST-PIF or D978A GST-PIF (1.5 μM), or the indicated PIF peptides (4 μM) in a final volume of 20 μl. The reactions were terminated by making the solutions 1% in SDS, the samples subjected to SDS-polyacylamide gel electrophoresis, and the phosphorylation assessed by autoradiography of the gel. The position in the gel where GST-p70 S6KT2 (73 kDa) migrates is indicated with an arrow. The only other ^32P-labelled protein on the gel which is not shown, corresponded to autophosphorylation of PDK1 and contained ˜10 fold lower levels of ^32P-radioactivity than that of the GST-p70 S6T2 phosphorylated by PDK1 in the absence of PIF. A high amount of PDK1 is used in this experiment to achieve a near maximal phosphorylation of GST-p70 S6T2. If the reactions were carried out at a 10-fold lower concentration of PDK1 under conditions where the phosphorylation of GST-p70 S6T2 by PDK1 is linear with time and the amount of substrate used, then PIF still prevented the phosphorylation of GST-p70 S6T2 (data not shown). wt indicates wild type and PSer indicates phospho-serine. The results of a duplicate experiment for each condition are shown, and similar findings were obtained in five separate experiments.
Preparation of insect cell His-p70 S6K. p70 S6K with a His-epitope tag at its N-terminus lacking the carboxy terminal 104 residues is termed p70 S6K-T2. In order to prepare wild type and the mutant 412E-p70 S6K-T2 the cDNA for these constructs was amplified by PCR from the pMT2 vector encoding these forms of p70 S6K [6] using the following oligonucleotides: 5′-AGGATCCACCATGCACCATCACCATCACCATATGAGGCGAGCAAGGAGGCGG-3′ and 5′-GCGGCCGCTCAACTTTCAAGTACAGATGGAGCC-3′. The PCR products were then subcloned into the BamH1/Not1 sites of the pFASTBAC 1 vector and this vector was used to generate recombinant baculovirus using the Bac-to-Bac system (Life Technologies Inc). The resulting viruses, encoded p70 S6K-T2 or 412E-p70 S6K-T2 with an N-terminal hexahistidine sequence, and was used to infect Sf21 cells (1.5×10^6/m) at a multiplicity of infection of 5. The infected cells were harvested 72 h post-infection and the His-p70 S6K proteins purified by Ni^2+/NTA (nitrilotriacetic acid)-agarose chromatography as described previously for PKBβ [25]. […]

The target in assay [2] is PDK1. The note with it: ref [24], cited from earlier work.

Consider `CC[C@H](C)[C@H](NC(=O)[C@H](Cc1ccc(O)cc1)NC(=O)[C@H](CC(=O)O)NC(=O)[C@H](Cc1ccccc1)NC(=O)[C@H](CC(=O)O)NC(=O)[C@H](CCCNC(=N)N)NC(=O)[C@H](Cc1ccccc1)NC(=O)[C@H](CCSC)NC(=O)[C@H](CCC(=O)O)NC(=O)[C@H](CCC(N)=O)NC(=O)[C@H](CCC(=O)O)NC(=O)[C@H](CCC(=O)O)NC(=O)[C@H](CCC(=O)O)NC(=O)[C@H](CO)NC(=O)[C@H](CC(C)C)NC(=O)[C@@H](NC(=O)[C@H](CCCNC(=N)N)NC(=O)[C@@H]1CCCN1C(=O)[C@H](CCC(=O)O)NC(=O)[C@@H](N)CCCNC(=N)N)[C@@H](C)CC)C(=O)N[C@@H](C)C(=O)N[C@@H](CC(=O)O)C(=O)N[C@@H](Cc1c[nH]c2ccccc12)C(=O)N[C@@H](CS)C(=O)O` [PIFtide] (H-REPRILSEEEQEMFRDFDYIADWC-OH; N-terminus and C-terminus assumed), for which the “effect on phosphorylation of GST-p70 S6K-T2 by PDK1” value (“effect on phosphorylation” below) on PDK1 [1] (peptide 4 μM) was “unable to phosphorylate”. Further, the Kd on PDK1 [2] (read-out: affinity of PDK1 for PIFtide (Kd)) is around 0.3 µM.

With `CC[C@H](C)[C@H](NC(=O)[C@H](CCCNC(=N)N)NC(=O)[C@@H]1CCCN1C(=O)[C@H](CCC(=O)O)NC(=O)[C@@H](N)CCCNC(=N)N)C(=O)N[C@@H](CC(C)C)C(=O)N[C@@H](CO)C(=O)N[C@@H](CCC(=O)O)C(=O)N[C@@H](CCC(=O)O)C(=O)N[C@@H](CCC(=O)O)C(=O)N[C@@H](CCC(N)=O)C(=O)N[C@@H](CCC(=O)O)C(=O)N[C@@H](CCSC)C(=O)N[C@@H](Cc1ccccc1)C(=O)N[C@@H](CCCNC(=N)N)C(=O)N[C@@H](CC(=O)O)C(=O)N[C@@H](Cc1ccccc1)C(=O)N[C@@H](C)C(=O)N[C@@H](Cc1ccc(O)cc1)C(=O)N[C@@H](CC(C)C)C(=O)N[C@@H](C)C(=O)N[C@@H](CC(=O)O)C(=O)N[C@@H](Cc1c[nH]c2ccccc12)C(=O)N[C@@H](CS)C(=O)O` [D978A-PIFtide] (H-REPRILSEEEQEMFRDFAYLADWC-OH; N-terminus and C-terminus assumed), the “effect on phosphorylation” value on PDK1 [1] (peptide 4 μM) is on record as “poorly inhibited”. In addition, the “reduced affinity for PDK1 compared with wild type PIFtide” value in the assay on PDK1 [2] is on record as 10 fold.

“GST-PIF: glutathione S-transferase fused to the last 77 residues of PRK2 (PIF)”: the “effect on phosphorylation” value in the assay with PDK1 [1] (GST fusion 1.5 μM) was “unable to phosphorylate”.
